Experimental data from paper PMC11493595, “Stretching the structural envelope of imatinib to reduce β-amyloid production by modulating both β- and γ-secretase cleavages of APP” (Frontiers in Chemistry, 2024).
Like-named read-outs stand apart in the source and are kept apart here.

Experiments:
Format in all cases: cell-based
[1] = tested on: N2a695 cells; test: Aβ38, Aβ40, Aβ42 in conditioned media of N2a695 cells, MSD ELISA; settings: N2a695 cell supernatant, 5 h, single experiment
Protocol: (§1) N2a695 were cultured in 1:1 OptiMem Reduced Serum Media (Life Technologies): Dulbecco’s Modified Eagle Medium ([+] 4.5 g/L D-glucose [+] L-Glutamine; [−] Sodium pyruvate (Life Technologies) supplemented with 5% fetal bovine serum, 0.4% Penstrep and 0.4% Geneticin and incubated at 37°C in 5% CO2. Antibodies were obtained from The Laboratory of Molecular and Cellular Neuroscience at The Rockefeller University. Human Aβ40 and Aβ42 ELISA plates (Life Technologies) and Plus MSD (Mesoscale Discovery) plates for Aβ Peptide (Aβ38, Aβ40 and Aβ42) Panel 1 (6E10) Kit (Catalog number K15200G) were obtained from Thermo Fisher, Life Technologies and Meso Scale Discovery.
(§2) N2a695 cells were used to screen all new compounds and in the follow-up studies with compounds found active in the preliminary screen. In a typical experiment, 6-well tissue culture plates (Corning) were seeded at 4.0 × 10^5–4.5 × 10^5 N2a695 cells/mL, 2 mL/well for overnight incubation. When cells were >95% confluent, media were exchanged with fresh media containing 10 µM solutions of compounds or DMSO carrier alone and cells were incubated at 37°C in 5% CO2 for 5 h. Culture media were collected and soluble Aβ concentrations in the media were determined by ELISA or MSD plates for human Aβ peptides as per manufacturer instructions. Signals for Aβ were measured using Perkin Elmer Envision and SQ120 MSD ELISA reader. Follow-up studies with N2a695 cells were performed similarly.
Similarly, we evaluated all IMTi-1 and IMTi-2 analogs, including the Boc-protected compounds, using N2a695 cells. […] To further examine the activities of the active analogs and whether IMTi’s has any bias on amyloidogenic vs. nonamyloidogenic cleavage of APP, we retested dozens of IMTi-1 and 2 analogs, including several found active in the screening assay and some tested for the first time using N2a695 cells as above, and performed MSD ELISA of the conditioned media to measure Aβ40, Aβ38, and Aβ42 peptides simultaneously.

[2] = tested on: N2a695 cells; test: as above; settings: N2a695 cell supernatant, 5 h, single experiment; remark: listed apart in the source
[3] = tested on: N2a695 cells; test: Screening of Aβ production in N2a695 cells (Aβ ELISA of cell supernatants); settings: N2a695 cells; for Aβ production in the screen (Fig. S1) / Aβ40 levels: 10 µM
Protocol: as §1, §2
Specifically, we exposed N2a695 cells to increasing concentrations of each compound and measured the production of Aβ38, 40, and 42. […] Remarkably, this occurs for all Aβ peptides tested shorter than 40 amino acids (Figure 2C). Moreover, for some compounds that modulate γ-secretase activity most conspicuously at 5 μM, this effect vanishes at 10 μM, relative to controls (Figure 2B, C). […]

Compound	activity at 10 µM ([1]; read-out: % Aβ38 of DMSO ctrl) [%]	activity at 10 µM ([1]; read-out: % Aβ40 of DMSO ctrl) [%]	activity at 10 µM ([1]; read-out: % Aβ42 of DMSO ctrl) [%]	activity at 5 µM ([2]; read-out: % Aβ38 of DMSO ctrl) [%]	activity at 5 µM ([2]; read-out: % Aβ40 of DMSO ctrl) [%]	activity at 5 µM ([2]; read-out: % Aβ42 of DMSO ctrl) [%]	Aβ production in the screen (Fig. S1) [3]	Aβ40 levels [3] [%]	Activity in Aβ production assays [3]
Cc1ccccc1Nc1nccc(-c2cncc(NC(=O)c3ccc(C4CCCN(C)C4)cc3)c2)n1 (stereo not drawn) [Compound 1n]	95	42	38	112	63	56	–	–	–
Cc1ccccc1Nc1nccc(-c2cccc(NC(=O)c3ccc(CNCC(C)(C)C)cc3)c2)n1 [Compound 1i]	85	41	46	106	56	58	–	–	–
Cc1ccccc1Nc1nccc(-c2cncc(NC(=O)c3ccc(CN4CCNCC4)cc3)c2)n1 [Compound 1b]	61	34	33	95	56	53	–	–	–
Cc1ccccc1Nc1nccc(-c2cncc(NC(=O)c3ccc(CNCC(C)(C)C)cc3)c2)n1 [Compound 1h]	80	43	43	106	64	58	–	–	–
Cc1ccccc1Nc1nccc(-c2cncc(NC(=O)c3ccc(CCN(C)C)cc3)c2)n1 [Compound 1e]	91	46	44	99	57	54	–	–	–
Cc1ccccc1Nc1nccc(-c2cccc(NC(=O)c3ccc(CNC4CCCCC4)cc3)c2)n1 [Compound 1k]	92	38	38	120	60	56	–	–	–
Cc1ccccc1Nc1nccc(-c2cccc(NC(=O)c3ccc(CN4CCN(C)CC4)cc3)c2)n1 [Compound 1a]	86	40	35	105	57	49	–	–	–
Cc1ccccc1Nc1nccc(-c2cccc(NC(=O)c3ccc(CN(C(=O)OC(C)(C)C)C4CCCCC4)cc3)c2)n1 [Compound 1k-Boc]	–	–	–	–	–	–	increase in Aβ production	–	–
Cc1ccc(CN2CCN(Cc3ccc(C(=O)Nc4cccnc4)cc3)CC2)cc1Nc1ncccn1 [IMTi-3]	–	–	–	–	–	–	–	93	inactive
Cc1ccccc1Nc1nccc(-c2cncc(NC(=O)c3ccc(CNC4CCCCC4)cc3)c2)n1 [Compound 1j]	123	73	65	112	83	75	–	–	–
Cc1ccc(Nc2nccc(-c3ccc(CNC4CCCCC4)cc3)n2)cc1NC(=O)c1cccnc1 [Compound 2b]	74	71	74	93	90	88	–	–	–
Cc1ccc(Nc2nccc(-c3ccc(CN4CCN(C)CC4)cc3)n2)cc1NC(=O)c1cccnc1 [IMTi-2]	–	–	–	–	–	–	–	68	active
Cc1ccccc1Nc1nccc(-c2cccc(NC(=O)c3ccc(CN(CC(C)(C)C)C(=O)OC(C)(C)C)cc3)c2)n1 [Compound 1i-Boc]	–	–	–	–	–	–	increase in Aβ production	–	–
Cc1ccccc1Nc1nccc(-c2cncc(NC(=O)c3ccc(C4CCCNC4)cc3)c2)n1 (stereo not drawn) [Compound 1L]	52	21	17	107	48	43	–	–	–
